{"source": "ChEMBL document CHEMBL6120988", "about": "“Mitochondria-targeting artesunate-rhein conjugates: Linker-modulated cell-permeability, heme-affinity and anticancer activity” (Eur J Med Chem, 2025)", "key": {"4T1 [1]": {"test_system": "4T1", "test": "Antitumor activity against mouse 4T1 cells allografted in female BALB/c mouse assessed as disappearance of cancer cells at 10 mg/kg, iv administrated every 3 days for 5 times and measured after 22 days by H and E staining based analysis", "assay_type": "functional, organism-based", "settings": "time 22.0 day"}, "A549": {"test_system": "A549", "test": "Cytotoxicity against human A549 cells assessed as cell viability by MTT assay", "assay_type": "functional, cell-based"}, "U-87 MG": {"test_system": "U-87 MG", "test": "Cytotoxicity against human U87 cells assessed as cell viability by MTT assay", "assay_type": "functional, cell-based, U-87MG ATCC"}, "[2]": {"test": "Toxicity against female BALB/c mouse allografted with mouse 4T1 cells assessed as mean corpuscular volume at 100 mg/kg, po administrated every day for 15 times and measured after 22 days", "assay_type": "organism-based", "settings": "in vivo, 528 h, time 22 day"}, "[3]": {"test": "Toxicity against female BALB/c mouse allografted with mouse 4T1 cells assessed as mean corpuscular hemoglobin concentration at 10 mg/kg, iv administrated every 3 days for 5 times and measured after 22 days", "assay_type": "organism-based", "settings": "in vivo, 528 h, time 22 day"}, "4T1 [4]": {"test_system": "4T1", "test": "Cytotoxicty against mouse 4T1 cells assessed as cell death by measuring red staining by calcein/PI staining based live/dead staining analysis", "assay_type": "functional"}, "4T1 [5]": {"test_system": "4T1", "test": "Antitumor activity against mouse 4T1 cells allografted in female BALB/c mouse assessed as increase in infiltration of CD3+ CD8+ T lymphocytes in tumors at 10 mg/kg, iv administrated every 3 days for 5 times and measured after 22 days by flow cytometry analysis (reference value: 7.87 %)", "assay_type": "functional", "settings": "time 22 day"}, "4T1 [6]": {"test_system": "4T1", "test": "Immunostimulatory activity in mouse 4T1 cells implanted in female BALB/c mouse assessed as reduction in immunosuppressive CD206+ expression", "assay_type": "functional, cell-based"}, "[7]": {"test": "Drug uptake in mouse 4T1 cells after 3 hrs by flow cytometry analysis", "assay_type": "ADME, cell-based", "settings": "4t1, 3 h"}, "4T1 [8]": {"test_system": "4T1", "test": "Antitumor activity against mouse 4T1 cells allografted in female BALB/c mouse assessed as reduction in tumor tissue weight at 100 mg/kg, po administrated every day for 15 times and measured after 22 days", "assay_type": "functional, organism-based", "settings": "time 22.0 day"}, "[9]": {"test": "Oral bioavailability in mouse at 100 mg/kg", "assay_type": "ADME, organism-based", "settings": "in vivo"}, "4T1 [10]": {"test_system": "4T1", "test": "Antitumor activity against mouse 4T1 cells allografted in female BALB/c mouse assessed as increase in apoptotic cells at 10 mg/kg, iv administrated every 3 day for 5 times and measured after 22 days by TUNEL staining based assay", "assay_type": "functional, organism-based", "settings": "time 22.0 day"}, "[11]": {"test": "Toxicity in female BALB/c mouse allografted with mouse 4T1 cells assessed as change in body weight at 10 mg/kg, iv administrated every 3 day for 5 times and measured every 2 days for 22 days relative to control", "assay_type": "organism-based", "settings": "in vivo, 528 h, time 22 day"}, "[12]": {"test": "Toxicity in female BALB/c mouse allografted with mouse 4T1 cells assessed as change in body weight at 100 mg/kg, po administrated every day for 15 times and measured every 2 days for 22 days relative to control", "assay_type": "organism-based", "settings": "in vivo, 528 h, time 22 day"}, "[13]": {"test": "MRT (0 to infinity) in mouse at 100 mg/kg, po", "assay_type": "ADME, organism-based", "settings": "in vivo"}, "4T1 [14]": {"test_system": "4T1", "test": "Induction of apoptosis in mouse 4T1 cells assessed as late apoptotic cells by Annexin V-FITC and PI staining based flow cytometry analysis (reference value: 0.13 %)", "assay_type": "functional"}, "[15]": {"test": "Tmax in mouse iv dosed mouse", "assay_type": "ADME, organism-based", "settings": "in vivo"}, "4T1 [16]": {"test_system": "4T1", "test": "Antitumor activity against mouse 4T1 cells allografted in female BALB/c mouse assessed as reduction in tumor tissue volume at 10 mg/kg, iv administrated every 3 day for 5 times and measured after for 22 days", "assay_type": "functional, organism-based", "settings": "time 22.0 day"}, "[17]": {"test": "Toxicity against female BALB/c mouse allografted with mouse 4T1 cells assessed as effect on red blood cells at 10 mg/kg, iv administrated every 3 days for 5 times and measured after 22 days", "assay_type": "organism-based", "settings": "in vivo, 528 h, time 22 day"}, "4T1 [18]": {"test_system": "4T1", "test": "Antitumor activity against mouse 4T1 cells allografted in female BALB/c mouse assessed as increase in infiltration of CD44+CD62L- lymphocytes in tumors at 100 mg/kg, po administrated every day for 15 times and measured after 22 days by flow cytometry (reference value: 5.5%)", "assay_type": "functional", "settings": "time 22 day"}, "4T1 [19]": {"test_system": "4T1", "test": "Induction of apoptosis in mouse 4T1 cells assessed as early apoptotic cells by Annexin V-FITC and PI staining based flow cytometry analysis(reference value: 3.60 %)", "assay_type": "functional"}, "4T1 [20]": {"test_system": "4T1", "test": "Induction of mitochondrial dysfunction in mouse 4T1 cells assessed as ATP production", "assay_type": "functional, cell-based"}, "4T1 [21]": {"test_system": "4T1", "test": "Induction of immunogenic cell death in mouse 4T1 cells assessed as increase in CRT expression by flow cytometry analysis (reference value: 2.55%)", "assay_type": "functional"}, "4T1 [22]": {"test_system": "4T1", "test": "Cytotoxicty against mouse 4T1 cells assessed as cell viability by MTT assay", "assay_type": "functional, cell-based"}, "4T1 [23]": {"test_system": "4T1", "test": "Induction of mitochondrial dysfunction in mouse 4T1 cells assessed as maximum respiration", "assay_type": "functional, cell-based"}, "Mitochondrial membrane": {"test_system": "Mitochondrial membrane", "test": "Induction of mitochondrial membrane potential loss in mouse 4T1 cells assessed as increase in green fluorescence by JC-1 staining based flow cytometric analysis (reference value: 7.4 %)", "assay_type": "cell membranes"}, "[24]": {"test": "Toxicity against female BALB/c mouse allografted with mouse 4T1 cells assessed as hemoglobin at 10 mg/kg, iv administrated every 3 days for 5 times and measured after 22 days", "assay_type": "organism-based", "settings": "in vivo, 528 h, time 22 day"}, "[25]": {"test": "Toxicity in female BALB/c mouse allografted with mouse 4T1 cells assessed as effect on blood platelet at 10 mg/kg, iv administrated every 3 days for 5 times and measured after 22 days", "assay_type": "organism-based", "settings": "in vivo, 528 h, time 22 day"}, "4T1 [26]": {"test_system": "4T1", "test": "Antitumor activity against mouse 4T1 cells allografted in female BALB/c mouse assessed as inhibition of cell proliferation at 10 mg/kg, iv administrated every 3 day for 5 times and measured after 22 days by PCNA assay", "assay_type": "functional, organism-based", "settings": "time 22.0 day"}, "[27]": {"test": "Toxicity in female BALB/c mouse allografted with mouse 4T1 cells assessed as effect on blood platelet at 100 mg/kg, po administrated every day for 15 times and measured after 22 days", "assay_type": "organism-based", "settings": "in vivo, 528 h, time 22 day"}, "[28]": {"test": "Half life in mouse iv dosed mouse", "assay_type": "ADME, organism-based", "settings": "in vivo"}, "4T1 [29]": {"test_system": "4T1", "test": "Antitumor activity against mouse 4T1 cells allografted in female BALB/c mouse assessed as increase in infiltration of CD44+CD62L- lymphocytes in tumors at 10 mg/kg, iv administrated every day for 15 times and measured after 22 days by flow cytometry (reference value: 5.17%)", "assay_type": "functional", "settings": "time 22 day"}, "4T1 [30]": {"test_system": "4T1", "test": "Induction of ROS production in mouse 4T1 cells assessed as increase in intracellular ROS level by […] staining based flow cytometry (reference value: 7.8%)", "assay_type": "functional"}, "4T1 [31]": {"test_system": "4T1", "test": "Antitumor activity against mouse 4T1 cells allografted in female BALB/c mouse assessed as tumor inhibition rate at 100 mg/kg, po administrated every day for 15 times and measured after 22 days relative to control", "assay_type": "functional", "parameters": "scale not given: the % may be the effect or the level left", "settings": "time 22 day"}, "4T1 [32]": {"test_system": "4T1", "test": "Induction of mitochondrial dysfunction in mouse 4T1 cells assessed as coupling efficiency", "assay_type": "functional, cell-based"}, "[33]": {"test": "MRT (0 to infinity) in iv dosed mouse", "assay_type": "ADME, organism-based", "settings": "in vivo"}, "MCF7": {"test_system": "MCF7", "test": "Cytotoxicity against human MCF7 cells assessed as cell viability by MTT assay", "assay_type": "functional, cell-based"}}, "note": "Activity calls are given as the source filed them. The calls are words filed in the database; no cut-off is given here.", "data": [{"smiles": "C[C@H]1[C@H](OC(=O)CCC(=O)OCCCCOC(=O)c2cc(O)c3c(c2)C(=O)c2cccc(O)c2C3=O)O[C@@H]2O[C@@]3(C)CC[C@H]4[C@H](C)CC[C@@H]1[C@@]24OO3", "values": [{"measurement": "Activity", "setting": "4T1 [1]", "result": "Active"}, {"measurement": "IC50", "setting": "A549", "result": 2790, "unit": "nM"}, {"measurement": "IC50", "setting": "U-87 MG", "result": 2140, "unit": "nM"}, {"measurement": "Activity", "setting": "[2]", "result": "Non-toxic"}, {"measurement": "Activity", "setting": "[3]", "result": "Non-toxic"}, {"measurement": "Activity", "setting": "4T1 [4]", "result": "Active"}, {"measurement": "Activity", "setting": "4T1 [5]", "result": 15.33, "unit": "%"}, {"measurement": "Activity", "setting": "4T1 [6]", "result": "Active"}, {"measurement": "Activity", "setting": "[7]", "result": "Active"}, {"measurement": "Activity", "setting": "4T1 [8]", "result": "Active"}, {"measurement": "bioavailability", "setting": "[9]", "result": 15.8, "unit": "%"}, {"measurement": "Activity", "setting": "4T1 [10]", "result": "Active"}, {"measurement": "Activity", "setting": "[11]", "result": "Non-toxic"}, {"measurement": "Activity", "setting": "[12]", "result": "Non-toxic"}, {"measurement": "MRT inf", "setting": "[13]", "result": 4.95, "unit": "h"}, {"measurement": "Activity", "setting": "4T1 [14]", "result": 29.4, "unit": "%"}, {"measurement": "Tmax", "setting": "[15]", "result": 0.17, "unit": "h"}, {"measurement": "Activity", "setting": "4T1 [16]", "result": "Active"}, {"measurement": "Activity", "setting": "[17]", "result": "Non-toxic"}, {"measurement": "Activity", "setting": "4T1 [18]", "result": 17.2, "unit": "%"}, {"measurement": "Activity", "setting": "4T1 [19]", "result": 34.8, "unit": "%"}, {"measurement": "Activity", "setting": "4T1 [20]", "result": "Active"}, {"measurement": "Activity", "setting": "4T1 [21]", "result": 32.82, "unit": "%"}, {"measurement": "IC50", "setting": "4T1 [22]", "result": 1130, "unit": "nM"}, {"measurement": "Activity", "setting": "4T1 [23]", "result": "Active"}, {"measurement": "Activity", "setting": "Mitochondrial membrane", "result": 45.6, "unit": "%"}, {"measurement": "Activity", "setting": "[24]", "result": "Non-toxic"}, {"measurement": "Activity", "setting": "[25]", "result": "Non-toxic"}, {"measurement": "Activity", "setting": "4T1 [26]", "result": "Active"}, {"measurement": "Activity", "setting": "[27]", "result": "Non-toxic"}, {"measurement": "half-life", "setting": "[28]", "result": 7.01, "unit": "h"}, {"measurement": "Activity", "setting": "4T1 [29]", "result": 14.4, "unit": "%"}, {"measurement": "Activity", "setting": "4T1 [30]", "result": 42.5, "unit": "%"}, {"measurement": "Activity", "setting": "4T1 [31]", "result": 76.84, "unit": "%"}, {"measurement": "Activity", "setting": "4T1 [32]", "result": "Active"}, {"measurement": "MRT inf", "setting": "[33]", "result": 7.67, "unit": "h"}, {"measurement": "IC50", "setting": "MCF7", "result": 1900, "unit": "nM"}]}]}
